Tests used:
[1] = system: retinal pigment epithelium (RPE) cells; assay: Example 19: proliferation of primary retinal pigment epithelium cultures; format: cell-based, human
Procedure: Primary cultures of human retinal pigment epithelium (RPE) were established according to the method described by Campochiaro et al. in Invest. Opthal & Vis. Sci. 32:65 (1991). 5×10^4 cells were plated in 16-mm wells of 24-well multiwell plates in DMEM (Gibco) containing 5% FBS. […] Cells were fed with fresh media containing the appropriate concentrations of these compounds every two days for a total of five days of treatment. Cells were removed from the plates by gentle digestion with trypsin and the number of cells was counted with an electronic cell counter.
AGN 193109 was tested for its ability to potentiate the anti-proliferative effect of 13-cis retinoic acid (13-cis RA) in primary RPE cultures using conditions and techniques to measure RPE cell proliferation described above. […] More particularly, 13-cis RA is useful in the treatment of several disease states, including acne (Peck et al. N. Engl. J. Med. 300:329 (1977); Jones et al. Br. J. Dermatol. 108:333 (1980)), and squamous cell carcinoma of the skin and cervix in combination treatment with interferon 2α (Lippman et al. J. Natl. Cancer Inst. 84:241 (1992); Moore et al. Seminars in Hematology 31:31 (1994)).
We next tested the ability of AGN 193109 to potentiate the activities of other nuclear receptor hormones in primary RPE cell cultures. Dexamethasone, a synthetic glucocorticoid receptor agonist, is one member of a class of compounds that have been used clinically for their potent anti-inflammatory and immunosuppressive properties. Thyroid hormone (T3; […]) is a natural thyroid hormone receptor agonist used primarily for hormone replacement therapy in the treatment of hypothyroidism.

[2] = system: cervical carcinoma patients; assay: Example 23: clinical study in cervical carcinoma patients with metastatic disease; format: in vivo, human; conditions: maximum tolerated dose every other day, three months to one year
Procedure: Patients are divided into two groups. The first group is a control group while members of the second group are treated with AGN 193109. AGN 193109 is combined with a pharmaceutically acceptable excipient to produce a composition suitable for systemic administration, all according to techniques that will be familiar to one having ordinary skill in the art. The control group is administered a placebo formulation and the experimental group is administered with the formulation containing the AGN 193109 negative hormone. Dosing of patients is at the maximum tolerated dose and is performed every other day for a period of from three months to one year. The outcome of the study is quantified via measurement of disease-free survival over time.

Cc1ccc(C2=CCC(C)(C)c3ccc(C#Cc4ccc(C(=O)O)cc4)cc32)cc1 [Compound 60, 4-[(5,6-dihydro-5,5-dimethyl-8-(4-methylphenyl)-2-naphthalenyl)ethynyl]benzoic acid]
enhancement of the antiproliferative activity of ATRA ([1]; 10^−10 M ATRA with 10^−7 M AGN 193109 equals 10^−8 M ATRA alone): approximately 100 fold | potency of 13-cis RA in repression of RPE cell proliferation ([1]; AGN 193109 10^−8 or 10^−6M with 13-cis RA 10^−12 to 10^−6M): dramatically increased the potency of 13-cis RA | growth rate of the RPE cells ([1]; AGN 193109 alone, 10^−10 to 10^−6 M): did not substantially alter the growth rate of the RPE cells | RPE cell proliferation ([1]; dexamethasone 10^−11 to 10^−6M with 10^−8 or 10^−6M AGN 193109): repressed RPE cell proliferation to an extent that approximated the inhibition caused by treatment with ATRA | RPE cell proliferation ([1]; thyroid hormone 10^−11 to 10^−6M with AGN 193109 10^−8 or 10^−6M): inhibited RPE cell proliferation in a thyroid hormone dependent manner | disease-free survival [2]: significant increase in disease-free survival

Source: patent US6469028B1, “Synthesis and use of retinoid compounds having negative hormone and/or anatgonist activities” (Allergan, Inc., priority 1995, dated 2002)
